Patent US8962244B2, “Compounds for modulating RNA binding proteins and uses therefor” (University of Massachusetts, priority 2009, dated 2015)

Target: T1, MEX-5 (Caenorhabditis elegans, UniProt Q9XUB2)
T1 construct: The fragment of mex-5 containing the TZF domain (amino acids 236-350) was amplified; made in house; host or cells: Escherichia coli JM109
T1 sequence (Q9XUB2 236-350): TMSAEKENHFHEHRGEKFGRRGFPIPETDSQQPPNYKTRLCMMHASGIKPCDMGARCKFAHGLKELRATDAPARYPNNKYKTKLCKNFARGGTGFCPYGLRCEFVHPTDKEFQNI
Test: Fluorescence polarization screening of MEX-5 binding to fluorescein-labeled TCR2 RNA
Conditions: 192 μM test compound; score = polarization relative to no-drug and no-protein controls; 0.25 = 75% inhibition; lowest score = greatest inhibition; read-out: MEX-5 score
Description: The expression and purification of recombinant MEX-5 protein has previously been described in Pagano, J. M., Farley, B. M., McCoig, L. M. and Ryder, S. P. (2007) “Molecular basis of RNA recognition by the embryonic polarity determinant MEX-5;” J Biol Chem; 282, 8883-8894. The fragment of mex-5 containing the TZF domain (amino acids 236-350) was amplified from a commercially available ORFeome clone (Open Biosystems) and sub-cloned into the vector pMal-c (NEB), which encodes maltose binding protein as an N-terminal fusion. This construct is termed pMal-MEX-5 (236-350).
MEX-5 is expressed in Escherchia. coli JM109 liquid cultures grown at 37° C. Cultures were induced during mid log phase by the addition of 0.1 mM isopropyl 1-thio-β-D-galactopyranoside (IPTG) and allowed to grow for three hours. An amount of 100 μM zinc acetate (final concentration) was added at the time of induction. The pelleted cells were resuspended in lysis buffer (50 mM Tris pH 8.8, 200 mM NaCl, 2 mM DTT, EDTA free protease inhibitor tablet (Roche), 100 μM Zn(OAc)2) and lysed by sonication. The soluble protein was purified in three steps using standard chromatography methods: (1) amylose affinity (NEB), (2) Hi-TRAP-Q (GE Healthcare), and (3) Hi-TRAP-S (GE Healthcare). The Q buffer was composed of 50 mM Tris, pH 8.8, 20 mM-1500 mM NaCl, 2 mM DTT, and 100 μM Zn(OAc)2. The S buffer was composed of 50 mM MOPS, pH 6.0, 20 mM-1500 mM NaCl, 2 mM DTT, 100 μM Zn(OAc)2. The pure fractions, determined by coomassie-stained SDS-PAGE, were dialyzed into storage buffer (20 mM Tris, pH 8.0, 25 mM NaCl, 100 μM Zn(OAc)2, 2 mM DTT). The protein concentration was determined by measuring absorbance at 280 nm and the calculated extinction coefficient. The protein was stored at 50 μM concentration at 4° C.
All RNA oligonucleotides were chemically synthesized by Dharmacon or Integrated DNA Technologies. Upon arrival, each RNA was deprotected and stored according to the manufacturer's instructions. Prior to use, the RNA was resuspended in 10 mM Tris-HCl, pH 8.0, 0.1 mM EDTA, and the concentration determined by UV spectrophotometry using the calculated extinction coefficient at 260 nm based on the specific sequence. The sequence of the MEX-5 binding RNA (TCR2) is […] (SEQ ID NO:1). The POS-1 binding RNA (BMF018) is […] (SEQ ID NO:2). The MEX-3 binding RNA (SEQ 14) is […] (SEQ ID NO:3).
The RNA used for the small molecule screen was labeled at the 3′-end with fluorescein by Dharmacon during synthesis. In a few cases, follow up experiments were performed with post-synthetically labeled RNA. In this case, fluorescein 5-thiosemicarbazide (FTSC, Invitrogen) was used to 3′-end label each RNA after treatment with sodium periodate (see Reines, S. A. and Cantor, C. R. (1974) “New fluorescent hydrazide reagents for the oxidized 3′-terminus of RNA” Nucleic Acids Res. 1, 767-786). A representative 50 μl reaction consisted of 0.5 nanomoles RNA, 100 mM NaOAc, pH 5.1, and 5 nanomoles NaIO4. After the reaction was complete (90 minutes at room temperature), the sample was ethanol precipitated by adding 1 μl RNase free glycogen (Invitrogen 20 μg/μl), 1/20th volume of 5 M NaCl, and 2 volumes of 100% ice-cold ethanol. The resulting pellet was resuspended in 50 μl of 100 mM NaOAc, pH 5.1 containing 1 mM FTSC and was allowed to react overnight at 4° C. in the dark. The unreacted label was removed by ethanol precipitation with resuspension of the pellet in a small volume of TE, and purification over a Roche G-25 size exclusion spin column. The labeling efficiency is determined by calculating the ratio of fluorescein absorbance at 490 nm to RNA-fluorescein absorbance at 260 nm. Typical efficiencies are 60-80%.
The ability of MEX-5 to associate with RNA was monitored by fluorescence polarization using a victor V3 or victor V2V plate reader (Perkin Elmer) in 384-well FluoTrak microplates (Grenier). […]

Structure (SMILES)	remaining activity at 192 µM
Cc1cc(C)nc(NS(=O)(=O)c2ccc(Nc3nc(-c4ccc(O)c(O)c4)cs3)cc2)n1 [AC]	7.58%
CCC(=O)NC(c1ccc(OC)c(OC)c1)c1cc([N+](=O)[O-])c2cccnc2c1O (stereo not shown) [AG]	8.62%
O=[N+]([O-])c1cccc(S(=O)(=O)Nc2cc(Br)c(O)c3ccccc23)c1 [AJ]	9.23%
CCCc1nnc(NC(=O)c2cccc(C(=O)Nc3nnc(CCC)s3)n2)s1 [AK]	10.2%
CCOC(=O)c1c[nH]c2nc3ccccc3n2c1=O [AM]	10.5%
Cn1c(-c2cc(Br)ccc2O)n[nH]c1=S [AN]	10.5%
O=C(Nc1nc2ccccc2s1)c1cccc(C(=O)Nc2nc3ccccc3s2)n1 [AP]	12.2%
S=C(Nc1ccccc1)Nc1nc2ccccc2n1Cc1ccccc1 [AR]	12.9%
Cc1ccc(-n2c(-c3ccco3)n[nH]c2=S)cc1 [AS]	13.1%
Cc1ccc(S(=O)(=O)Nc2nc(N3C(=O)c4ccccc4C3=O)n(-c3ccccc3)n2)cc1 [AT]	13.2%
CCCCn1c(NC(=S)Nc2ccccc2)nc2ccccc21 [AW]	14.1%
Cc1ccccc1Cn1c(S)nc2ccccc21 [AX]	14.1%
Sc1nnc(COc2cccc(Br)c2)n1-c1ccccc1 [BB]	15.4%
COc1ccc(OCCn2c(NC(C)=O)nc3ccccc32)cc1 [BC]	15.5%
Sc1nnc(CCc2ccccc2)n1-c1ccccc1 [BD]	15.5%
COc1ccc(C(=O)Nc2nc(N3C(=O)c4ccccc4C3=O)n(-c3ccccc3)n2)cc1 [BE]	16.1%
Cc1cc([N+](=O)[O-])ccc1NC(=O)c1cnccn1 [BG]	17.2%
O=C(Nc1nc2n(n1)C(c1ccccc1)C=C(c1ccccc1)N2)c1ccc([N+](=O)[O-])cc1 (stereo not shown) [BH]	17.6%
Oc1ccccc1-c1n[nH]c(=S)n1-c1ccccc1 [BM]	18.8%
COc1ccc(C(=O)NC(=S)Nc2cc(C)cc(C)c2)cc1Cl [BN]	18.9%

Structure (SMILES)	remaining activity at 192 µM
Sc1nnc(-c2cccs2)n1CCc1ccccc1 [BQ]	19.5%
CCCCC(=O)Nc1cccc(NC(=S)NC(=O)C(C)C)c1 [BT]	20.2%
Cc1ccc(-c2cc(C(=O)Nc3ccccc3Cl)c3ccccc3n2)o1 [BW]	21.2%
O=[N+]([O-])c1cc(CN2CCC(c3ccccc3)C2)c(O)c2ncccc12 (stereo not shown) [BX]	21.2%
CCOC(=O)N1CCN(C(=S)Nc2ccc3nc(-c4ccccn4)c(-c4ccccn4)nc3c2)CC1 [BZ]	21.4%
Cc1ccc(C(=O)Nc2nc(-c3ccccc3)c(-c3ccccc3)o2)cc1 [CC]	22.5%
COc1ccc(OCc2nnc(S)n2-c2ccccc2)cc1 [CE]	22.7%
COc1cc(-c2nnc(S)n2-c2ccc(C)cc2C)cc(OC)c1OC [CF]	22.9%
CCc1ccc(-n2c(-c3cc(Cl)ccc3OC)n[nH]c2=S)cc1 [CG]	23%
CCCn1c(NC(=S)Nc2ccccc2)nc2ccccc21 [CH]	23.1%
O=C(CSc1nnc2c(n1)[nH]c1ccccc12)Nc1ccc(S(=O)(=O)Nc2nccs2)cc1 [CI]	23.2%
O=c1[nH]c(=S)[nH]c2sc3c(c12)CCCCCCCCCC3 [CJ]	23.4%
O=C(NC(=S)N(Cc1ccccc1)Cc1ccccc1)c1ccc([N+](=O)[O-])cc1 [CK]	23.4%
Fc1ccc(-n2c(S)nnc2-c2cccs2)cc1 [CL]	23.5%
CC(C)Oc1ccc(Cc2nnc(S)n2-c2ccccc2)cc1Cl [CM]	23.6%
Cc1ccccc1OCc1nnc(S)n1C [CN]	23.9%
O=C(NC(=S)N(Cc1ccccc1)Cc1ccccc1)c1ccc(Br)o1 [CP]	24.1%
CCOC(=O)C(=O)Nc1nnc(C(C)(C)C)s1 [CR]	24.7%
C=CCn1c(S)nnc1CCc1ccc(OC(C)C)cc1 [CS]	25.2%

Results, then the compound that gave them:

remaining activity at 192 µM	Structure (SMILES)
25.2%	Sc1nnc(SCc2ccccc2Cl)s1 [CT]
25.3%	CCc1cc(-c2n[nH]c(C)c2-c2nc3ccccc3s2)c(O)cc1OC [CU]
25.5%	CC(=O)Nc1nc(N2C(=O)c3ccccc3C2=O)n(-c2ccccc2)n1 [CV]
2.09%	CCOC(=O)Cc1nnc(NC(=O)c2ncn[nH]2)s1 [N]
3.51%	CCOC(=O)C(=O)Nc1nnc(Cc2ccc(Cl)cc2)s1 [Q]
3.52%	Sc1nnc(-c2cccs2)n1-c1ccccc1 [R]
6.21%	O=[N+]([O-])c1cc(CN2CCOCC2)c2cccnc2c1O [U]
6.26%	O=S(=O)(Nc1cc(Cl)c(O)c2ccccc12)c1cccs1 [V]
6.69%	O=[N+]([O-])c1cccc(S(=O)(=O)Nc2cc(Cl)c(O)c3ccccc23)c1 [X]

Same assay, conditions: read-out: MEX-5 score

Structure (SMILES)	remaining activity at 192 µM
CC(=O)Oc1ccc2c(C)cc(=O)oc2c1OC(C)=O [CQ]	24.5%

Target: T2, POS-1 (Caenorhabditis elegans, UniProt G5EF15)
T2 construct: 6-his tag (N); made in house; host or cells: E. coli BL21 (DE3) Gold
T2 sequence (G5EF15 80-180): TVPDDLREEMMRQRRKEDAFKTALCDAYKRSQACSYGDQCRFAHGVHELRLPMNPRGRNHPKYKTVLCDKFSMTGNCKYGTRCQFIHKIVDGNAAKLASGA
Test: Fluorescence polarization screening of POS-1 binding to fluorescein-labeled BMF018 RNA
Conditions: 192 μM test compound; score = polarization relative to no-drug and no-protein controls; 0.25 = 75% inhibition; lowest score = greatest inhibition; read-out: POS-1 score

Structure (SMILES)	remaining activity at 192 µM
O=C(NC1CCCCCC1)c1ccc(I)cc1 [CW]	3.98%
O=C1NN(c2ccc(F)c(Cl)c2)C(=O)/C1=C\c1cccc(OC(=O)c2cccs2)c1 [CX]	4.3%
O=C(O)c1ccc(NC(=S)NC(=O)c2sc3ccccc3c2Cl)cc1 [CY]	4.35%
O=S(=O)(Nc1ccc(S(=O)(=O)Nc2nccs2)cc1)c1ccc(Br)cc1 [CZ]	4.89%
COc1ccc(N2CC(C(=O)Nc3ccc(S(=O)(=O)Nc4nccs4)cc3)CC2=O)cc1 (stereo not shown) [DA]	6.51%
CC1=NN(c2ccc(Cl)c(C(=O)O)c2)C(=O)/C1=C/c1cccc(OC(=O)c2cccs2)c1 [DB]	6.9%
NC(=O)c1ccccc1NC(=O)CN(c1cccc(Br)c1)S(=O)(=O)c1ccccc1 [DC]	7.5%
O=[N+]([O-])c1cc(C2Nc3ccc4ccccc4c3C3C=CCC32)ccc1O (stereo not shown) [DE]	8.86%
COc1cc(/C=C2/C(=O)N(c3ccc(Cl)c(C(=O)O)c3)N=C2C)ccc1OC(=O)c1cccs1 [DF]	10.1%
CCc1nnc(NS(=O)(=O)c2ccc(NCc3cc(Cl)cc(Cl)c3O)cc2)s1 [DH]	11.9%
COc1ccc(S(=O)(=O)Nc2ccc(C)cc2NS(=O)(=O)c2ccc(OC)cc2)cc1 [DI]	11.9%
CCOc1ccc(C(=O)NC(=S)Nc2ccc(C(=O)O)c(Cl)c2)cc1Br [DK]	14.3%
